According to PubChem BioAssay (NCI):
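Where inhibition never reached the appropriate level, the endpoint shown equals the highest concentration tested. Otherwise, values were interpolated linearly from a five-concentration, 48-hour dose response in 96-well plates. Here, GI50 denotes the concentration required for 50% inhibition of growth. TGI denotes the concentration required for complete inhibition of growth.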

Columns and labels:
Assay in all cases: DTP human tumour cell line panel, 48 h
HL-60(TB) leukemia = tested on: HL-60(TB) leukemia
786-0 renal = tested on: 786-0 renal
A549 NSCLC = tested on: A549 NSCLC
HOP-92 NSCLC = tested on: HOP-92 NSCLC
CAKI-1 renal = tested on: CAKI-1 renal
RPMI-8226 leukemia = tested on: RPMI-8226 leukemia
HS 578T breast = tested on: HS 578T breast
SN12C renal = tested on: SN12C renal
UACC-257 melanoma = tested on: UACC-257 melanoma
COLO 205 colon = tested on: COLO 205 colon
NCI-H23 lung = tested on: NCI-H23 lung
KM12 colon = tested on: KM12 colon
K-562 leukemia = tested on: K-562 leukemia
OVCAR-5 ovarian = tested on: OVCAR-5 ovarian
SF-268 CNS = tested on: SF-268 CNS
SR leukemia = tested on: SR leukemia
SK-OV-3 ovarian = tested on: SK-OV-3 ovarian
SK-MEL-28 melanoma = tested on: SK-MEL-28 melanoma
NCI-H522 lung = tested on: NCI-H522 lung
RXF 393 renal = tested on: RXF 393 renal
OVCAR-8 ovarian = tested on: OVCAR-8 ovarian
PC-3 prostate = tested on: PC-3 prostate
UACC-62 melanoma = tested on: UACC-62 melanoma
NCI/ADR-RES ovarian = tested on: NCI/ADR-RES ovarian
T-47D breast = tested on: T-47D breast
TK-10 renal = tested on: TK-10 renal
OVCAR-3 ovarian = tested on: OVCAR-3 ovarian
SW-620 colon = tested on: SW-620 colon
LOX IMVI melanoma = tested on: LOX IMVI melanoma
SNB-75 CNS = tested on: SNB-75 CNS
HT29 colon = tested on: HT29 colon
NCI-H226 lung = tested on: NCI-H226 lung
NCI-H460 lung = tested on: NCI-H460 lung
M14 melanoma = tested on: M14 melanoma
SK-MEL-5 melanoma = tested on: SK-MEL-5 melanoma
MCF7 breast = tested on: MCF7 breast
MALME-3M melanoma = tested on: MALME-3M melanoma
SNB-19 CNS = tested on: SNB-19 CNS
HCT-15 colon = tested on: HCT-15 colon
MDA-MB-435 = tested on: MDA-MB-435
SF-295 CNS = tested on: SF-295 CNS
SF-539 CNS = tested on: SF-539 CNS
U251 CNS = tested on: U251 CNS
HCT-116 colon = tested on: HCT-116 colon
SK-MEL-2 melanoma = tested on: SK-MEL-2 melanoma
UO-31 renal = tested on: UO-31 renal
ACHN renal = tested on: ACHN renal
HCC-2998 colon = tested on: HCC-2998 colon
MDA-MB-231 breast = tested on: MDA-MB-231 breast
BT-549 breast = tested on: BT-549 breast
DU-145 prostate = tested on: DU-145 prostate
OVCAR-4 ovarian = tested on: OVCAR-4 ovarian
A498 renal = tested on: A498 renal

SMILES: Nc1c(C(=O)Nc2ccccc2Cl)sc2nc3c(cc12)CCCCCC3
- GI50 (HL-60(TB) leukemia): 2730 nM
- TGI (HL-60(TB) leukemia): > 100 µM
- GI50 (786-0 renal): 1750 nM
- TGI (786-0 renal): 3.27 µM
- GI50 (A549 NSCLC): 4.54 µM
- TGI (A549 NSCLC): 73.2 µM
- GI50 (HOP-92 NSCLC): 1770 nM
- TGI (HOP-92 NSCLC): 6.54 µM
- GI50 (CAKI-1 renal): 3.74 µM
- TGI (CAKI-1 renal): > 100 µM
- GI50 (RPMI-8226 leukemia): > 100 µM
- TGI (RPMI-8226 leukemia): > 100 µM
- GI50 (HS 578T breast): 2900 nM
- TGI (HS 578T breast): 14.6 µM
- GI50 (SN12C renal): 9.11 µM
- TGI (SN12C renal): > 100 µM
- GI50 (UACC-257 melanoma): 11.1 µM
- TGI (UACC-257 melanoma): > 100 µM
- GI50 (COLO 205 colon): 8.52 µM
- TGI (COLO 205 colon): > 100 µM
- GI50 (NCI-H23 lung): 8.83 µM
- TGI (NCI-H23 lung): > 100 µM
- GI50 (KM12 colon): 3.67 µM
- TGI (KM12 colon): > 100 µM
- GI50 (K-562 leukemia): 541 nM
- TGI (K-562 leukemia): > 100 µM
- GI50 (OVCAR-5 ovarian): 6.88 µM
- TGI (OVCAR-5 ovarian): > 100 µM
- GI50 (SF-268 CNS): 3.44 µM
- TGI (SF-268 CNS): 16.7 µM
- GI50 (SR leukemia): 2180 nM
- TGI (SR leukemia): > 100 µM
- GI50 (SK-OV-3 ovarian): 2650 nM
- TGI (SK-OV-3 ovarian): 7.88 µM
- GI50 (SK-MEL-28 melanoma): 10.2 µM
- TGI (SK-MEL-28 melanoma): > 100 µM
- GI50 (NCI-H522 lung): 13.6 µM
- TGI (NCI-H522 lung): 91.1 µM
- GI50 (RXF 393 renal): 1850 nM
- TGI (RXF 393 renal): 3.98 µM
- GI50 (OVCAR-8 ovarian): 4.11 µM
- TGI (OVCAR-8 ovarian): 30.5 µM
- GI50 (PC-3 prostate): 15.4 µM
- TGI (PC-3 prostate): > 100 µM
- GI50 (UACC-62 melanoma): 3.32 µM
- TGI (UACC-62 melanoma): > 100 µM
- GI50 (NCI/ADR-RES ovarian): 2820 nM
- TGI (NCI/ADR-RES ovarian): 25.4 µM
- GI50 (T-47D breast): 3.88 µM
- TGI (T-47D breast): 17.2 µM
- GI50 (TK-10 renal): 2400 nM
- TGI (TK-10 renal): 6.22 µM
- GI50 (OVCAR-3 ovarian): 3.23 µM
- TGI (OVCAR-3 ovarian): 12.7 µM
- GI50 (SW-620 colon): 3.14 µM
- TGI (SW-620 colon): > 100 µM
- GI50 (LOX IMVI melanoma): 5.7 µM
- TGI (LOX IMVI melanoma): > 100 µM
- GI50 (SNB-75 CNS): 1570 nM
- TGI (SNB-75 CNS): 3.35 µM
- GI50 (HT29 colon): 2390 nM
- TGI (HT29 colon): 13.4 µM
- GI50 (NCI-H226 lung): 3.76 µM
- TGI (NCI-H226 lung): 24.5 µM
- GI50 (NCI-H460 lung): 3.32 µM
- TGI (NCI-H460 lung): 13.9 µM
- GI50 (M14 melanoma): 2250 nM
- TGI (M14 melanoma): 95.1 µM
- GI50 (SK-MEL-5 melanoma): 3.91 µM
- TGI (SK-MEL-5 melanoma): > 100 µM
- GI50 (MCF7 breast): 896 nM
- TGI (MCF7 breast): 16.7 µM
- GI50 (MALME-3M melanoma): 2620 nM
- TGI (MALME-3M melanoma): 9.33 µM
- GI50 (SNB-19 CNS): 2930 nM
- TGI (SNB-19 CNS): 20.5 µM
- GI50 (HCT-15 colon): 1590 nM
- TGI (HCT-15 colon): > 100 µM
- GI50 (MDA-MB-435): 275 nM
- TGI (MDA-MB-435): 1100 nM
- GI50 (SF-295 CNS): 2470 nM
- TGI (SF-295 CNS): 13.6 µM
- GI50 (SF-539 CNS): 2650 nM
- TGI (SF-539 CNS): 8.12 µM
- GI50 (U251 CNS): 2990 nM
- TGI (U251 CNS): 21.3 µM
- GI50 (HCT-116 colon): 1950 nM
- TGI (HCT-116 colon): 6.6 µM
- GI50 (SK-MEL-2 melanoma): 2770 nM
- TGI (SK-MEL-2 melanoma): 23.1 µM
- GI50 (UO-31 renal): 2190 nM
- TGI (UO-31 renal): 5.01 µM
- GI50 (ACHN renal): 2170 nM
- TGI (ACHN renal): 4.86 µM
- GI50 (HCC-2998 colon): 7.06 µM
- TGI (HCC-2998 colon): > 100 µM
- GI50 (MDA-MB-231 breast): 2240 nM
- TGI (MDA-MB-231 breast): 14.1 µM
- GI50 (BT-549 breast): 3.64 µM
- TGI (BT-549 breast): 29.1 µM
- GI50 (DU-145 prostate): 7.84 µM
- TGI (DU-145 prostate): > 100 µM
- GI50 (OVCAR-4 ovarian): 2110 nM
- TGI (OVCAR-4 ovarian): 5.1 µM
- GI50 (A498 renal): 7.73 µM
- TGI (A498 renal): > 100 µM
